Assay results: US20030138433A1, “Autologous adoptive immunotherapy with antigen-specific primed T cells or B cells to promote antigen-specific immune responses with an appropriate cytokine bias” (priority 1999, published 2003)

How the values were obtained:
[1] = system: Total splenic B cells from C3H, AKR, C3H.lpr and MRL.gld mice; experiment: DNA content of total splenic B cells (saponin/propidium iodide flow cytometry); assay type: cell-based; conditions: B cells from lpr animals compared with normal animals
Procedure: Total splenic B cells were isolated from C3H, AKR, C3H.lpr, and MRL.gld mice. The cells were cultured overnight, harvested, permeabilized in saponin, stained with propidium iodide (PI) which intercalates into DNA, and analyzed by flow cytometry. Because the majority of cells in these preparations are either resting or “growth arrested,” the predominant peak in the untreated samples is the G0/G1 peak (2N DNA).

[2] = system: Splenic B cells from AKR mice (resting, in vitro primed, in vivo activated); experiment: Apoptotic death of splenic B cells scored by nucleosome-sized DNA fragments (densitometry); assay type: cell-based; conditions: 10 μM, primed and activated B cells
Procedure: Splenic B cells from AKR mice were separated on a Percoll density gradient and two fractions were collected: small, high-density, resting B cells were obtained from the 1.079<ρ<1.085 g/ml interface and large in vivo activated B cells were collected at the BSS<ρ<1.066 g/ml interface. In vitro primed B cells were obtained by treating resting B cells with 16U recombinant IL-4 and by incubating them overnight on anti-Ig-coated plates. […] Apoptotic death was scored by quantitating the formation of nucleosome-sized DNA fragments by densitometry.

L1210 cells = experiment: Methotrexate-induced cell death (flow cytometry, ethidium bromide, DNA fragments); assay type: cell-based, mouse (BALB/c-derived)
Procedure: (§1) L1210 and L1210/DDP cells were treated overnight with 5×10^−7 M methotrexate. […] The forward scatter low populations took up ethidium bromide differentially. The L1210 cells took up a moderate amount of ethidium bromide whereas the L1210/DDP cells took up large amounts. […] This latter phenotype—loss in forward scatter and membrane permeability with no “DNA laddering”—is the hall mark of oncosis.
(§2) L1210 and L1210/DDP cells were treated with a dose of methotrexate that produced moderate amounts of cell death. (Even though L1210/DDP is “methotrexate resistant”, the drug does induce cell death in the cultures; the surviving cells which grow out of the culture are responsible for the lines “drug resistant” appellation).

L1210/DDP cells = experiment: as above; assay type: cell-based, mouse (BALB/c-derived)
Procedure: as §1, §2

[3] = system: transgenic mice expressing a hen egg lysozyme (HEL)-specific T cell receptor (3A9) crossed with MHC class II transgenic mice; experiment: In vivo antigen pulse of 3A9 x MHC class II transgenic crosses, spleen cell analysis; conditions: 100 μg, six days after injection
Procedure: Mouse spleens were removed after sacrifice and placed into 4 ml PBS, 0.1% BSA in a petri dish. A single cell suspension was prepared using the frosted ends of two microscope slides. Cells were then transferred into a 15 ml tube. The cell suspension was underlayed with 2 ml Ficoll-paque and then centrifuged for 15 min. at 1,000×g. Lymphocytes at the interface were collected and washed 3× with ice-cold 15 ml PBS, 0.1% BSA. Cells were counted and resuspended to 1.6×10^7 viable cells per ml concentration, in RPMI 1640 25 mM HEPES, 50 μM 2-ME, 10% FBS, 1× L-glutamine, 1× sodium pyruvate, 1× nonessential amino acids.
The FACScalibur, flow cytometer was calibrated using Becton-Dickinson calibration beads prior to each four color analysis run. Cells also were analyzed on a FACScan™ with CellQuest software (Becton Dickinson, San Jose, Calif.).
Two different crosses between the mice carrying the different transgenes were generated. Transgenic mice expressing a hen egg lysozyme (HEL)-specific T cell receptor (3A9) were crossed with: (i) the transgenic mice expressing wild type MIIC class II on a null MHC class II background, and (ii) the transgenic mice expressing hybrid MHC class II-MCH class I molecules on a null MHC class II background.
Mice, 4-8 weeks old, generated from the above-identified crosses were pulsed in vivo with an injection of 100 μg total of antigen (HEL). Six days after injenction, the cells from splenes were harvested, as described above, and analyzed. […] Additionally, the “tail” of MHC class II is not necessary for the proper loading and presentation of antigen.

[4] = 3A9×wild type MHC class II on null background

CC[C@H]1CN2CCc3cc(OC)c(OC)cc3[C@@H]2C[C@@H]1C[C@H]1NCCc2cc(OC)c(OC)cc21 [emetine]
DNA fragmentation, lpr vs normal B cells [1]: equally capable of fragmenting DNA

CC(C)NCC(O)c1ccc(O)c(O)c1 (stereo not drawn) [isoproterenol]
induction of apoptosis [2]: induces apoptosis in all three populations

CN(Cc1cnc2nc(N)nc(N)c2n1)c1ccc(C(=O)N[C@@H](CCC(=O)O)C(=O)O)cc1 [methotrexate]
mode of cell death (L1210 cells; L1210): die by apoptosis | DNA fragments (L1210 cells; L1210, 5×10^−7 M overnight): produced a ladder of nucleosome sized fragments indicative of apoptosis | mode of cell death (L1210/DDP cells): die by oncosis | DNA fragments (L1210/DDP cells; 5×10^−7 M overnight): did not

hen egg lysozyme [HEL]
T cells in spleen ([3]; 3A9×hybrid MHC class II-MHC class I on null background): a CD4^+ T cell subset missing | MHC class II bearing B cells in spleen [3, 4]: no MHC class II bearing B cells | T cells in spleen [3, 4]: normal T cell numbers
